Columns and labels:
[1] = test system: adjuvant-induced arthritis (AIA) model; experiment: Clinical score analysis in adjuvant-induced arthritis (AIA) model; type: in vivo, Lewis rats; design: Clinical score 9th day / Clinical score 13th day / Clinical score 16th day / Clinical score 11th day / Clinical score 15th day / Clinical score 18th day: scale not given here; conditions: for Clinical score 9th day / Clinical score 13th day / Clinical score 16th day: Mean ± SD; for Clinical score 11th day / Clinical score 15th day / Clinical score 18th day: Mean ± SEM
Description: (§1) Lewis rats (female, five-weeks old) were purchased from Central Lab Animal, Inc. and kept in a controlled environment with a temperature at 22±2° C., a humidity at 44-56% and a light/dark cycle of 12 hours, while being allowed to have a free access to standard diet and water for one week before an examination. Complete Freund's Adjuvant (Chondrex) containing 10 mg/mL of heat killed mycobacteria toxin was fully mixed together, after which […] thereof was taken and subcutaneously injected into each upper tail of the rats to induce arthritis therefrom.
(§2) To administer a drug of compound 374 (SM374) and evaluate an effect thereof, the rats were divided into 11 groups (9, 10 or 11 animals per group) one day before or nine days after inducing arthritis, after which each group was classified according to administered substances (vehicle, compound 374 (SM374) or methotrexate (MTX)) and administration routes (oral administration (P.O.) or intraperitoneal administration (I.P.)) as shown in a following table 13.
(§3) Also, in order to administer a drug of compounds 374, 413, 484, 530 and 652 (SM374, SM413, SM484, SM530 and SM652) and evaluate an effect thereof, the rats were divided into 13 groups (9 or 10 animals per group) eight days after inducing arthritis, and each group was classified according to administered substances (vehicle, SM374, SM413, SM484, SM530, SM652 and MTX) and administration routes (oral or intraperitoneal administration) as shown in a following table 14.
To identify the efficacy of the inventive composition on preventing or treating arthritis in an AIA model, an analysis was made on the clinical scores of rats dosed with a compound 374 (SM 374, once per day) or MTX (once per week or twice per week) from 9th day to 16th day after inducing arthritis.
Particularly, a degree of swelling, erythema, etc., in each joint of the rats were observed, after which clinical scores were calculated according to a scoring system described in a following table 15, such that the clinical scores on four joints were added up to obtain total scores for each rat (Vishwakarma et al., 2013).
To identify the efficacy of the inventive composition on preventing or treating arthritis in an AIA model, an analysis was made on the clinical scores of rats dosed with compounds 374, 413, 484, 530 and 652 (SM374, SM413, SM484, SM530 and SM652, once per day) or MIX (once per week) from 8th day to 18th day after inducing arthritis.

[2] = Analysis of body weights in AIA model; type: in vivo, Lewis rats; conditions: for Body weight (g) 9th day / Body weight (g) 13th day / Body weight (g) 16th day: Mean ± SD; for Body weight (g) 8th day / Body weight (g) 11th day / Body weight (g) 15th day / Body weight (g) 18th day: Table 19 study
Description: as §1, §2, §3
An analysis was made on the body weight of rats dosed with compound 374 (SM 374, once per day) or MIX (once per week or twice per week) from 9th day to 16th day after inducing AIA. […]

anti-CCP IgG = experiment: Analysis of anti-CCP IgG in plasma in AIA model (QUANTA Lite CCP3 IgG ELISA); type: in vivo, Lewis rats; conditions: Mean ± SD
Description: as §1, §2
An effect of compound 374 (SM374) and MTX on preventing or treating arthritis according to administration thereof in combination was evaluated based on analysis of anti-CCP IgG, known as a diagnosis marker for rheumatoid arthritis.
Particularly, blood was collected from each jugular vein of rats dosed with compound 374 (SM374, once per day) and MTX (once or twice per week) from 9th day to 16th day after inducing AIA, after which plasma was isolated therefrom, such that anti-CCP IgG was measured with QUANTA Lite®CCP3 (cyclic citrullinated peptide 3) IgG ELISA kit (INOVA Diagnostics Inc., U.S., catalog no. 704535) according to a protocol offered by a manufacturer thereof, wherein the results thereof are shown in FIG. 5 and Table 20.

[3] = Pharmacokinetic analysis, plasma concentration by LC/MS; type: in vivo; conditions: rats, MTX 1 mg/kg only
Description: A bioequivalence was evaluated through a pharmacokinetic test on administration of the inventive compound 374 (SM374) and MTX in combination as well as administration of MTX only.
Particularly, after administration of compound 374 (SM374) and MTX, plasma was isolated from blood collected from rats for each time slot, after which organic solvent was added into such plasma to carry out deproteinization and extraction, such that a resulting sample was subjected to quantitative analysis by means of liquid chromatography and mass spectrometer (LC/MS) along with a calibration sample treated under the same conditions, to measure a concentration of compound 374 (SM374) and MTX (FIG. 6 and Table 21) in plasma of the rats as well as each PK parameter (Table 22).

[4] = MTX 3 mg/kg twice per week I.P.
[5] = Table 17 study, MTX 1 mg/kg once per week I.P.
[6] = Table 17 study, MTX 3 mg/kg once per week I.P.

For `CN(Cc1cnc2nc(N)nc(N)c2n1)c1ccc(C(=O)N[C@@H](CCC(=O)O)C(=O)O)cc1` [MTX, Methotrexate], the “Rate of reduction in clinical scores (%)” value ([1]; MTX 1 mg/kg once per week I.P., 16th day vs vehicle) was 14.5%, the “Clinical score 9th day” value ([1]; MTX 1 mg/kg once per week I.P.) was 0.0 ± 0.0 and the “Clinical score 13th day” value ([1]; MTX 1 mg/kg once per week I.P.) was 2.2 ± 1.2. The “Clinical score 16th day” value ([1]; MTX 1 mg/kg once per week I.P.) was 5.9 ± 2.8, the “Rate of reduction in clinical scores (%)” value ([1]; MTX 3 mg/kg twice per week I.P., 16th day vs vehicle) was 65.2% and the “Clinical score 9th day” value [1, 4] was 0.0 ± 0.0. For the same compound, the “Clinical score 13th day” value [1, 4] was 1.1 ± 1.6, the “Clinical score 16th day” value [1, 4] was 2.4 ± 3.0 and the “Rate of reduction in clinical scores (%)” value ([1]; Table 17 study, MTX 1 mg/kg once per week I.P., 18th day vs vehicle) was 23.0%. For the same compound, the “Clinical score 11th day” value [1, 5] was 0.0 ± 0.0, the “Clinical score 15th day” value [1, 5] was 1.3 ± 0.9 and the “Clinical score 18th day” value [1, 5] was 4.7 ± 1.9. For the same compound, the “Rate of reduction in clinical scores (%)” value ([1]; Table 17 study, MTX 3 mg/kg once per week I.P., 18th day vs vehicle) was 96.7%, the “Clinical score 11th day” value [1, 6] was 0.0 ± 0.0 and the “Clinical score 15th day” value [1, 6] was 0.0 ± 0.0. For the same compound, the “Clinical score 18th day” value [1, 6] was 0.2 ± 0.2 #, the “Body weight (g) 9th day” value ([2]; MTX 1 mg/kg once per week I.P.) was 157.3 ± 11.9 g and the “Body weight (g) 13th day” value ([2]; MTX 1 mg/kg once per week I.P.) was 160.6 ± 4.2 g. The “Body weight (g) 16th day” value ([2]; MTX 1 mg/kg once per week I.P.) was 153.8 ± 7.9 g, the “Body weight (g) 9th day” value [2, 4] was 157.2 ± 7.3 g and the “Body weight (g) 13th day” value [2, 4] was 159.6 ± 5.7 g. The “Body weight (g) 16th day” value [2, 4] was 157.6 ± 5.7 g, the “Body weight (g) 8th day” value ([2]; MTX 1 mg/kg once per week I.P.) was 151.2 ± 2.4 g and the “Body weight (g) 11th day” value ([2]; MTX 1 mg/kg once per week I.P.) was 152.1 ± 2.3 g. The “Body weight (g) 15th day” value ([2]; MTX 1 mg/kg once per week I.P.) was 156.9 ± 2.8 g, the “Body weight (g) 18th day” value ([2]; MTX 1 mg/kg once per week I.P.) was 155.0 ± 3.9 g and the “Body weight (g) 8th day” value ([2]; MTX 3 mg/kg once per week I.P.) was 151.2 ± 2.4 g. For the same compound, the “Body weight (g) 11th day” value ([2]; MTX 3 mg/kg once per week I.P.) was 151.6 ± 3.8 g, the “Body weight (g) 15th day” value ([2]; MTX 3 mg/kg once per week I.P.) was 160.0 ± 2.9 g and the “Body weight (g) 18th day” value ([2]; MTX 3 mg/kg once per week I.P.) was 164.7 ± 2.5 g. The “Anti-CCP IgG (RU)” value (anti-CCP IgG; MTX 1 mg/kg) was 208.0 ± 24.3 RU, the “Anti-CCP IgG (RU)” value (anti-CCP IgG; MTX 3 mg/kg) was 104.6 ± 56.7 RU and the AUC(0-inf) ([3]; rat, plasma) was 1510 ± 231 ng·h/mL. It also gave a Cmax ([3]; rat, plasma) of 1300 ± 97.3 ng/mL, a Tmax ([3]; rat, plasma) of 30 min and a half-life ([3]; rat, plasma) of 54 min. The AUC(0-t) ([3]; rat, plasma, read-out: AUC0→8h) was 1500 ± 231 ng·h/mL, the concentration at 0.5 hr ([3]; rat, plasma, time 0.5 hr) was 1300 ± 97.3 ng/mL and the concentration at 1 hr ([3]; rat, plasma, time 1 hr) was 747 ± 129 ng/mL. It also gave a concentration at 2 hr ([3]; rat, plasma, time 2 hr) of 245 ± 108 ng/mL, a concentration at 4 hr ([3]; rat, plasma, time 4 hr) of 24.4 ± 9.7 ng/mL and a concentration at 8 hr ([3]; rat, plasma, time 8 hr) of 3 ± 0.3 ng/mL. For the same compound, the “Plasma concentration (ng/mL)” value ([3]; time 0 hr) was “BLOQ”.
